Assay results published in patent US7659277B2, “Ubiquitin ligase inhibitors and methods related thereto” (Proteologies, Ltd., priority 2003, dated 2010).
pIC50: −log10 of the molar value. Like-named read-outs stand apart in the source and are kept apart here.

How the values were obtained:
POSH = molecular target: T1, POSH (Homo sapiens, UniProt Q7Z6J0); assay: IC50 assay procedure: GST-POSH auto-ubiquitination, homogeneous time-resolved fluorescence (Ub-cryptate / anti-GST XL665); type: biochemical; conditions: ubiquitin ligase activity of POSH; GST-POSH 33 nM, 30 min preincubation
T1 construct: GST-POSH lot NB81/p.118 3.6 mg/ml; fused on or other part: GST tag, used for detection with anti-GST XL665
T1 sequence (Q7Z6J0 1-269 limits assumed): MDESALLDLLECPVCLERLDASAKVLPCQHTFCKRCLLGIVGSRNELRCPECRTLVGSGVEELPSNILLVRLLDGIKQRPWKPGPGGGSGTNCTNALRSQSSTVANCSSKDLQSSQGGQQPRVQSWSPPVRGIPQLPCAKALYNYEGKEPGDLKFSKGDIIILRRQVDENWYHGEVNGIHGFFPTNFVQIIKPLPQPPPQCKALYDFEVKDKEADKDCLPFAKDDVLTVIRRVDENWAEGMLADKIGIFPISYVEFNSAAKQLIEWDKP
In short: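 GST-POSH (33 nM) preincubated 30 min at RT with compounds (DMSO dilution series), then added to E1/E2/Eu-cryptate-ubiquitin enzyme mix for 30 min at 37 °C. Stopped with EDTA, anti-GST XL665 added 45 min at RT; HTRF signal of POSH auto-ubiquitination read, triplicates, IC50 from concentration series.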

Hmdm2 = Hmdm2 (Homo sapiens, UniProt Q00987); assay: Selectivity (% A in 1 μM), ubiquitin ligase activity of Hmdm2; type: biochemical; conditions: read-out: Selectivity (% A* in 1 μM) Hmdm2
c-cbl = c-cbl (Homo sapiens, UniProt P22681); assay: Selectivity (% A in 1 μM), ubiquitin ligase activity of c-cbl; type: biochemical; conditions: % activity at 1 μM compound; control is related to 100% activity; HTS protocol
E2 protein = type: biochemical; conditions: % activity at 1 μM compound; control is related to 100% activity; HTS protocol
HIV-1 = assay: HIV maturation (budding) in virus-like particle assay, HIV-1 p24 antigen ELISA; type: cell-based; conditions: Human immunodeficiency virus 1, read-out: Budding (3 μM)
Text: Compounds were further assessed for effects on maturation of HIV particles in a virus-like particle assay.

[1] = % activity at 1 μM compound, control is related to 100% activity, HTS protocol

Chain of Hmdm2 (Q00987 whole entry): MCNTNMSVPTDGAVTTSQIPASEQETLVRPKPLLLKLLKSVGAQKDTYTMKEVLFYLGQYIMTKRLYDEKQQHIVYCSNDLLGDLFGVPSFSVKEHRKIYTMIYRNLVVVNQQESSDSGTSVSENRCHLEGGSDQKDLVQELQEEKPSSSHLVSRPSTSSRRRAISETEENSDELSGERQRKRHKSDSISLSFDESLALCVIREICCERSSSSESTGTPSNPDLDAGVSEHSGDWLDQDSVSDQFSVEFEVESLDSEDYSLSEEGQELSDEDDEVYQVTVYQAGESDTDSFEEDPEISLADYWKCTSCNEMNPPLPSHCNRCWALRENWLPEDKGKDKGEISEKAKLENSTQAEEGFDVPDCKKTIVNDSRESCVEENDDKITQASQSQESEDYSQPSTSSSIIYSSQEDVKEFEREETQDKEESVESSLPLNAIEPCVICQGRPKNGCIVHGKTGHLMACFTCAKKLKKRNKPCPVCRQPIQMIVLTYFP

SMILES	pIC50 (POSH)	remaining activity at 1 µM (Hmdm2; [1]) [%]	remaining activity at 1 µM (c-cbl) [%]	Selectivity (% A* in 1 μM) E2 (E2 protein) [%]	remaining activity at 1 µM (Hmdm2) [%]	activity at 3 µM (HIV-1) [%]
O=C(NCc1ccc(Cl)cc1)C(=O)Nc1ccccc1 [Compound 104]	6.00	145	140	113		
O=C1c2ccccc2-c2nc3nonc3nc21 [Compound 91]	6.52				62	33
COc1ccc(Nc2ccc(O)c3c2C(=O)c2ccccc2C3=O)cc1 [Compound 100]	6.15	75	100	59		
O=C(/C=C/c1cccnc1)c1ccc(C(=O)/C=C/c2cccnc2)cc1 [Compound 92]	6.30	105	111	125		
COc1ccc(C(=O)CC2=C(O)C(=O)c3ccccc3C2=O)cc1 [Compound 89]	6.00	79	109	70		
CN(C)c1ccc(/C=C2/C(=O)NC(=O)N(C3CCCCC3)C2=O)cc1 [Compound 3]	6.05	102				
O=C(Nc1cccc2c(NC(=O)C3C4CCCCC43)cccc12)C1C2CCCCC21 (stereo not shown) [Compound 97]	6.22				123	64
O=c1oc2ccccc2c(O)c1C(=S)Nc1ccccc1 [Compound 96]	6.30				90	56
COc1cc(C2Nc3ccccc3NC3=C2C(=O)CC(C)(C)C3)cc(Br)c1O (stereo not shown) [Compound 102]	6.10	97	111	99		
Cc1ccc(C(=O)NN=C2CCC(=NNC(=O)c3ccc(C)cc3)CC2)cc1 [Compound 93]	5.89	106	84	78		
O=C(NC(C(Cl)(Cl)Cl)S(=O)(=O)c1ccccc1)c1ccc(Cl)cc1Cl (stereo not shown) [Compound 88]	6.60				118	57
Cc1cc(OC(=O)Cn2c(=O)sc3ccccc32)ccc1Cl [Compound 103]	6.40				100	69
O=C(O)COc1ccc2c(c1)oc(=O)c1ccccc12 [Compound 85]	6.15				94	59
O=C1NC(=O)N(c2ccccc2)C(=O)/C1=C\c1ccc2c(c1)OCO2 [Compound 4]	6.10	105				
Cc1cc(O)c(C(=O)/C=C/c2cccc(I)c2)c(=O)o1 [Compound 87]	6.10				119	29
COC(=O)C1=C(C(=O)OC)SC(=C2C(=S)C(C)(C)N(C(C)=O)c3cc(C)ccc32)S1 [Compound 99]	5.82	101	88	89		
O=C(Cc1ccccc1)N1N=CCC1(O)c1ccc(F)cc1 (stereo not shown) [Compound 94]	6.00	103	106	49		
Cc1[nH]c(=O)c(C(=O)/C=C/c2ccccc2F)c2c1CCCC2 [Compound 95]	6.00	98	136	100		
